Assay results from the supplement of paper PMC10307832.

What was measured:
Assay in all cases: relative viability (nuclei count vs DMSO), 5 days (fraction); higher = more cells survive
NCI-H23 = system: NCI-H23
Procedure, shortened: (§1)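 The day after seeding in 1536-well plates, lung cancer cell lines were treated by pin tool with a single drug, or with a fixed anchor-drug dose together with five library-drug doses (not always all listed) in √10 steps. After 5 days, a combined fix-and-stain solution (final 0.05% Triton X-100, 1% formaldehyde, 1 ug/ml Hoechst) was added. Nuclei counted on 4× images gave relative viability as treated counts over vehicle counts, reported as the median of duplicate plates.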

NCI-H1993 = system: NCI-H1993
Procedure, shortened: as §1

LK-2 = system: LK-2
Procedure, shortened: as §1

NCI-H1666 = system: NCI-H1666
Procedure, shortened: as §1

PC-14 = system: PC-14
Procedure, shortened: as §1

NCI-H2405 = system: NCI-H2405
Procedure, shortened: as §1

NCI-H2170 = system: NCI-H2170
Procedure, shortened: as §1

NCI-H3122 = system: NCI-H3122
Procedure, shortened: as §1

NCI-H1755 = system: NCI-H1755
Procedure, shortened: as §1

LU99A = system: LU99A
Procedure, shortened: as §1

NCI-H661 = system: NCI-H661
Procedure, shortened: as §1

NCI-H1437 = system: NCI-H1437
Procedure, shortened: as §1

NCI-H1793 = system: NCI-H1793
Procedure, shortened: as §1

HARA = system: HARA
Procedure, shortened: as §1

NCI-H2085 = system: NCI-H2085
Procedure, shortened: as §1

RERF-LC-KJ = system: RERF-LC-KJ
Procedure, shortened: as §1

LXF-289 = system: LXF-289
Procedure, shortened: as §1

LCLC-103H = system: LCLC-103H
Procedure, shortened: as §1

LOU-NH91 = system: LOU-NH91
Procedure, shortened: as §1

BEN = system: BEN
Procedure, shortened: as §1

NCI-H2342 = system: NCI-H2342
Procedure, shortened: as §1

A-427 = system: A-427
Procedure, shortened: as §1

## Oc1nc(-c2ccc(C(F)(F)F)cc2)nc2c1CSCC2 [XAV939] + Nc1nc2[nH]cc(CCc3ccc(C(=O)N[C@@H](CCC(=O)O)C(=O)O)cc3)c2c(=O)[nH]1 [Pemetrexed] (partner 0.2 µM)
NCI-H23; first compound 0.08 µM
  relative viability: 0.727
NCI-H23; first compound 0.8 µM
  relative viability: 0.543
NCI-H23; first compound 2.53 µM
  relative viability: 0.52
NCI-H1993; first compound 0.08 µM
  relative viability: 0.575
NCI-H1993; first compound 0.253 µM
  relative viability: 0.471
NCI-H1993; first compound 0.8 µM
  relative viability: 0.536
NCI-H1993; first compound 2.53 µM
  relative viability: 0.541
LK-2; first compound 0.08 µM
  relative viability: 0.291
LK-2; first compound 0.253 µM
  relative viability: 0.281
LK-2; first compound 0.8 µM
  relative viability: 0.236
LK-2; first compound 2.53 µM
  relative viability: 0.229
NCI-H1666; first compound 0.08 µM
  relative viability: 0.822
NCI-H1666; first compound 0.253 µM
  relative viability: 0.865
NCI-H1666; first compound 0.8 µM
  relative viability: 0.864
NCI-H1666; first compound 2.53 µM
  relative viability: 0.925
PC-14; first compound 0.08 µM
  relative viability: 0.14
PC-14; first compound 0.253 µM
  relative viability: 0.12
PC-14; first compound 0.8 µM
  relative viability: 0.123
PC-14; first compound 2.53 µM
  relative viability: 0.118
NCI-H2405; first compound 0.08 µM
  relative viability: 0.972
NCI-H2405; first compound 0.253 µM
  relative viability: 0.992
NCI-H2405; first compound 0.8 µM
  relative viability: 0.945
NCI-H2405; first compound 2.53 µM
  relative viability: 0.94
NCI-H2170; first compound 0.08 µM
  relative viability: 0.255
NCI-H2170; first compound 0.253 µM
  relative viability: 0.246
NCI-H2170; first compound 0.8 µM
  relative viability: 0.265
NCI-H2170; first compound 2.53 µM
  relative viability: 0.258
NCI-H3122; first compound 0.08 µM
  relative viability: 0.211
NCI-H3122; first compound 0.253 µM
  relative viability: 0.19
NCI-H3122; first compound 0.8 µM
  relative viability: 0.198
NCI-H3122; first compound 2.53 µM
  relative viability: 0.178
NCI-H1755; first compound 0.08 µM
  relative viability: 0.382
NCI-H1755; first compound 0.253 µM
  relative viability: 0.425
NCI-H1755; first compound 0.8 µM
  relative viability: 0.489
NCI-H1755; first compound 2.53 µM
  relative viability: 0.336
LU99A; first compound 0.08 µM
  relative viability: 0.19
LU99A; first compound 0.253 µM
  relative viability: 0.167
LU99A; first compound 0.8 µM
  relative viability: 0.184
LU99A; first compound 2.53 µM
  relative viability: 0.181
NCI-H661; first compound 0.08 µM
  relative viability: 0.947
NCI-H661; first compound 0.253 µM
  relative viability: 0.868
NCI-H661; first compound 0.8 µM
  relative viability: 0.914
NCI-H661; first compound 2.53 µM
  relative viability: 0.854
NCI-H1437; first compound 0.08 µM
  relative viability: 0.294
NCI-H1437; first compound 0.253 µM
  relative viability: 0.272
NCI-H1437; first compound 0.8 µM
  relative viability: 0.326
NCI-H1437; first compound 2.53 µM
  relative viability: 0.276
NCI-H1793; first compound 0.08 µM
  relative viability: 1.08
NCI-H1793; first compound 0.253 µM
  relative viability: 0.797
NCI-H1793; first compound 0.8 µM
  relative viability: 0.936
NCI-H1793; first compound 2.53 µM
  relative viability: 0.678
HARA; first compound 0.08 µM
  relative viability: 0.255
HARA; first compound 0.253 µM
  relative viability: 0.305
HARA; first compound 0.8 µM
  relative viability: 0.252
HARA; first compound 2.53 µM
  relative viability: 0.193
NCI-H2085; first compound 0.08 µM
  relative viability: 1.02
NCI-H2085; first compound 0.253 µM
  relative viability: 0.801
NCI-H2085; first compound 0.8 µM
  relative viability: 0.878
NCI-H2085; first compound 2.53 µM
  relative viability: 0.837
RERF-LC-KJ; first compound 0.08 µM
  relative viability: 0.493
RERF-LC-KJ; first compound 0.253 µM
  relative viability: 0.464
RERF-LC-KJ; first compound 0.8 µM
  relative viability: 0.502
RERF-LC-KJ; first compound 2.53 µM
  relative viability: 0.453
LXF-289; first compound 0.08 µM
  relative viability: 0.886
LXF-289; first compound 0.253 µM
  relative viability: 0.916
LXF-289; first compound 0.8 µM
  relative viability: 0.957
LXF-289; first compound 2.53 µM
  relative viability: 0.895
LCLC-103H; first compound 0.08 µM
  relative viability: 0.448
LCLC-103H; first compound 0.253 µM
  relative viability: 0.405
LCLC-103H; first compound 0.8 µM
  relative viability: 0.519
LCLC-103H; first compound 2.53 µM
  relative viability: 0.472
LOU-NH91; first compound 0.08 µM
  relative viability: 0.461
LOU-NH91; first compound 0.253 µM
  relative viability: 0.359
LOU-NH91; first compound 0.8 µM
  relative viability: 0.391
LOU-NH91; first compound 2.53 µM
  relative viability: 0.349
BEN; first compound 0.08 µM
  relative viability: 0.651
BEN; first compound 0.253 µM
  relative viability: 0.727
BEN; first compound 0.8 µM
  relative viability: 0.817
BEN; first compound 2.53 µM
  relative viability: 0.731
NCI-H2342; first compound 0.08 µM
  relative viability: 0.784
NCI-H2342; first compound 0.253 µM
  relative viability: 0.662
NCI-H2342; first compound 0.8 µM
  relative viability: 0.719
NCI-H2342; first compound 2.53 µM
  relative viability: 0.426
A-427; first compound 0.08 µM
  relative viability: 0.613
A-427; first compound 0.253 µM
  relative viability: 0.953
A-427; first compound 0.8 µM
  relative viability: 0.962
A-427; first compound 2.53 µM
  relative viability: 0.837
